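Where inhibition never reached the appropriate level, the endpoint shown equals the highest concentration tested. Otherwise, values were interpolated linearly from a five-concentration, 48-hour dose response in 96-well plates. GI50 marks 50% less growth. The concentration for full growth arrest is given as TGI.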
Assays:
Experiment in all cases: inhibition of tumour cell growth, NCI panel, 48 h
[1] = system: A498 renal
[2] = system: SNB-19 CNS
[3] = system: SF-268 CNS
[4] = system: SR leukemia
[5] = system: KM12 colon
[6] = system: EKVX NSCLC
[7] = system: DU-145 prostate
[8] = system: NCI/ADR-RES ovarian
[9] = system: MDA-MB-435
[10] = system: HCC-2998 colon
[11] = system: 786-0 renal
[12] = system: NCI-H226 lung
[13] = system: UACC-62 melanoma
[14] = system: SW-620 colon
[15] = system: HOP-92 NSCLC
[16] = system: SF-539 CNS
[17] = system: UO-31 renal
[18] = system: COLO 205 colon
[19] = system: NCI-H23 lung
[20] = system: SN12C renal
[21] = system: OVCAR-8 ovarian
[22] = system: RXF 393 renal
[23] = system: MALME-3M melanoma
[24] = system: SF-295 CNS
[25] = system: HT29 colon
[26] = system: HOP-62 NSCLC
[27] = system: MDA-MB-231 breast
[28] = system: HCT-116 colon
[29] = system: A549 NSCLC
[30] = system: LOX IMVI melanoma
[31] = system: MOLT-4 leukemia
[32] = system: SK-MEL-5 melanoma
[33] = system: NCI-H460 lung
[34] = system: IGROV1 ovarian
[35] = system: T-47D breast
[36] = system: SNB-75 CNS
[37] = system: SK-OV-3 ovarian
[38] = system: SK-MEL-28 melanoma
[39] = system: CAKI-1 renal
[40] = system: CCRF-CEM leukemia
[41] = system: OVCAR-3 ovarian
[42] = system: MCF7 breast
[43] = system: OVCAR-4 ovarian
[44] = system: NCI-H522 lung
[45] = system: U251 CNS
[46] = system: UACC-257 melanoma
[47] = system: OVCAR-5 ovarian
[48] = system: HL-60(TB) leukemia
[49] = system: RPMI-8226 leukemia
[50] = system: ACHN renal
[51] = system: SK-MEL-2 melanoma
[52] = system: M14 melanoma
[53] = system: BT-549 breast
[54] = system: PC-3 prostate
[55] = system: K-562 leukemia
[56] = system: HCT-15 colon

Clc1ccc(Cn2c(CN3CCCC3)nc3ccccc32)cc1
GI50 [1]: 11.3 µM
TGI [1]: 31.3 µM
GI50 [2]: 22.1 µM
TGI [2]: 57.1 µM
GI50 [3]: 30.8 µM
TGI [3]: > 100 µM
GI50 [4]: 23.5 µM
TGI [4]: 75.4 µM
GI50 [5]: 19.5 µM
TGI [5]: 53.4 µM
GI50 [6]: 17.5 µM
TGI [6]: 67.7 µM
GI50 [7]: 32.9 µM
TGI [7]: > 100 µM
GI50 [8]: 24.3 µM
TGI [8]: > 100 µM
GI50 [9]: 17.1 µM
TGI [9]: 41.2 µM
GI50 [10]: 21.6 µM
TGI [10]: 54 µM
GI50 [11]: 16.8 µM
TGI [11]: 32.9 µM
GI50 [12]: 14.8 µM
TGI [12]: 41.8 µM
GI50 [13]: 17.4 µM
TGI [13]: 47.3 µM
GI50 [14]: 14.8 µM
TGI [14]: 33.3 µM
GI50 [15]: 6.03 µM
TGI [15]: 29.5 µM
GI50 [16]: 18 µM
TGI [16]: 37.1 µM
GI50 [17]: 12.4 µM
TGI [17]: 36.5 µM
GI50 [18]: 17.6 µM
TGI [18]: 33.4 µM
GI50 [19]: 19 µM
TGI [19]: 59.9 µM
GI50 [20]: 30.1 µM
TGI [20]: > 100 µM
GI50 [21]: 29.7 µM
TGI [21]: > 100 µM
GI50 [22]: 14.1 µM
TGI [22]: 30.2 µM
GI50 [23]: 14.9 µM
TGI [23]: 33.4 µM
GI50 [24]: 14.3 µM
TGI [24]: 31.4 µM
GI50 [25]: 15.5 µM
TGI [25]: 38.4 µM
GI50 [26]: 20.8 µM
TGI [26]: 61.5 µM
GI50 [27]: 18.8 µM
TGI [27]: 41.8 µM
GI50 [28]: 11 µM
TGI [28]: 24.7 µM
GI50 [29]: 26.9 µM
TGI [29]: > 100 µM
GI50 [30]: 17 µM
TGI [30]: 34.1 µM
GI50 [31]: 28.3 µM
TGI [31]: 95.9 µM
GI50 [32]: 13.3 µM
TGI [32]: 26.2 µM
GI50 [33]: 14.5 µM
TGI [33]: 34.4 µM
GI50 [34]: 23.3 µM
TGI [34]: > 100 µM
GI50 [35]: 19.7 µM
TGI [35]: 83.5 µM
GI50 [36]: 21.5 µM
TGI [36]: 82.9 µM
GI50 [37]: 20 µM
TGI [37]: 48.8 µM
GI50 [38]: 24.6 µM
TGI [38]: 65.5 µM
GI50 [39]: 14.7 µM
TGI [39]: 54.8 µM
GI50 [40]: 27 µM
TGI [40]: > 100 µM
GI50 [41]: 18.4 µM
TGI [41]: 47.7 µM
GI50 [42]: 17 µM
TGI [42]: 32.6 µM
GI50 [43]: 21.9 µM
TGI [43]: 93.3 µM
GI50 [44]: 16.3 µM
TGI [44]: 33.7 µM
GI50 [45]: 15.2 µM
TGI [45]: 31.4 µM
GI50 [46]: 20 µM
TGI [46]: 55 µM
GI50 [47]: 25.3 µM
TGI [47]: 87.8 µM
GI50 [48]: 23.8 µM
TGI [48]: 65.2 µM
GI50 [49]: 16.4 µM
TGI [49]: 41.7 µM
GI50 [50]: 31.1 µM
TGI [50]: > 100 µM
GI50 [51]: 17.8 µM
TGI [51]: 34.6 µM
GI50 [52]: 17.1 µM
TGI [52]: 34 µM
GI50 [53]: 18.1 µM
TGI [53]: 38.8 µM
GI50 [54]: 19.6 µM
TGI [54]: 58.3 µM
GI50 [55]: 19.4 µM
TGI [55]: > 100 µM
GI50 [56]: 24.7 µM
TGI [56]: 87.7 µM
